From ChEMBL document CHEMBL3576796, “A Broad Anti-influenza Hybrid Small Molecule That Potently Disrupts the Interaction of Polymerase Acidic Protein-Basic Protein 1 (PA-PB1) Subunits” (J Med Chem, 2015)
≈ marks a conversion by molar mass, not a printed value.

Experiments:
Liver microsome = assay: Metabolic stability in human liver microsomes assessed as cytochrome-mediated metabolism after 30 mins by HPLC-MS/MS analysis; type: ADME; conditions: 0.5 h
Influenza A virus [1] = type: functional, organism-based; conditions: A/Puerto Rico/8/1934(H1N1), MDCK, 48 h
[2] = Cytotoxicity against human HEK293T cells assessed as decrease in cell viability by MTT assay; type: cell-based, HEK-293T
[3] = Cytotoxicity against MDCK cells assessed as decrease in cell viability by MTT assay; type: cell-based, Canis lupus familiaris; conditions: dog
[4] = biological target: PA/PB1 (Influenza A virus (A/Puerto Rico/8/1934(H1N1)), UniProt P03431+P03433)
[5] = Permeability of the compound assessed as membrane drug retention after 18 hrs by PAMPA assay; type: physicochemical; design: concentration or dose not given beside the values
Influenza A virus [6] = type: functional, organism-based; conditions: A/Puerto Rico/8/1934(H1N1), MDCK, 48 h; remark: listed apart in the source
[7] = Antiviral activity against Influenza A virus A/Solomon Island/3/06 (H1N1) assessed as reduction in plaque formation after 48 hrs by plaque reduction assay; type: functional, Influenza A virus (A/Solomon Islands/3/2006(H1N1))
[8] = Antiviral activity against Influenza A virus A/Wisconsin/67/05 (H3N2) assessed as reduction in plaque formation after 48 hrs by plaque reduction assay; type: functional, Influenza A virus (A/Wisconsin/67/2005(H3N2))
Influenza B virus [9] = assay: Antiviral activity against Influenza B virus B/Lee/40 assessed as reduction in plaque formation after 48 hrs by plaque reduction assay; type: functional, organism-based; conditions: B/Lee/1940, 48 h
Influenza B virus [10] = assay: Antiviral activity against Influenza B virus B/Malaysia/2506/04 assessed as reduction in plaque formation after 48 hrs by plaque reduction assay; type: functional; conditions: B/Malaysia/2506/2004, 48 h
Influenza B virus [11] = assay: Antiviral activity against Influenza B virus B/Bangladesh/333/07 assessed as reduction in plaque formation after 48 hrs by plaque reduction assay; type: functional, organism-based; conditions: B/Bangladesh/333/07, 48 h
[12] = Equilibrium solubility of the compound in phosphate buffer at pH 7.4 after 1 hr; type: physicochemical
[13] = Permeability of the compound assessed as passive diffusion from donor compartment to acceptor compartment after 18 hrs by PAMPA assay; type: physicochemical; conditions: read-out: Peff

| Structure (SMILES) | Drug metabolism (Liver microsome) | EC50 (Influenza A virus [1]) | CC50 [2] | CC50 [3] | IC50 [4] | Activity [5] | EC50 (Influenza A virus [6]) | EC50 [7] | EC50 [8] | EC50 (Influenza B virus [9]) | EC50 (Influenza B virus [10]) | EC50 (Influenza B virus [11]) | solubility thermodynamic at 1 h [12] | Papp at 18 h [13] |
| --- | --- | --- | --- | --- | --- | --- | --- | --- | --- | --- | --- | --- | --- | --- |
| CC1=CC(c2ccccc2)n2nc(NC(=O)c3ccc4ccccc4c3)nc2N1 (centres undefined) | metabolite_notdetected | 41 µM | 154 µM | > 115 µM | > 200 µM |  |  |  |  |  |  |  |  |  |
| COc1ccccc1C(=O)Nc1nc2n(n1)C(c1ccccc1)C=C(C)N2 (centres undefined) | metabolite_notdetected | > 100 µM | 240 µM | > 250 µM | > 200 µM |  |  |  |  |  |  |  |  |  |
| CCc1oc2ccccc2c1C(=O)c1cc(Br)c(O)c(Br)c1 [BENZBROMARONE] |  | 39 µM |  |  |  |  |  |  |  |  |  |  |  |  |
| CC1=CC(c2ccccc2)n2nc(NC(=O)c3ccc(Cl)cc3)nc2N1 (centres undefined) | metabolite_notdetected | > 100 µM | > 250 µM | > 250 µM | 95 µM |  |  |  |  |  |  |  |  |  |
| Cc1cc(-c2ccccc2)n2nc(C(=O)Nc3ccccc3)nc2n1 | metabolite_notdetected | 42 µM | 110 µM | > 250 µM | 160 µM |  |  |  |  |  |  |  |  |  |
| Cc1cc(-c2ccccc2)nc2nc(C(=O)Nc3sc4c(c3C(N)=O)CCCCC4)nn12 | metabolite_notdetected | 49 µM | > 250 µM | > 250 µM | 28 µM | 99% | 8 µM | 16 µM | 14 µM | 5 µM | 11 µM | 12 µM |  |  |
| CC1=CC(c2ccccc2)n2nc(NC(=O)c3cccc(F)c3)nc2N1 (centres undefined) | metabolite_notdetected | > 100 µM | 220 µM | > 250 µM | 156 µM |  |  |  |  |  |  |  |  |  |
| COc1cccc(C(=O)Nc2nc3n(n2)C(c2ccccc2)C=C(C)N3)c1 (centres undefined) | metabolite_notdetected | > 100 µM | 230 µM | > 250 µM | 175 µM |  |  |  |  |  |  |  |  |  |
| CCCOc1ccc(C(=O)Nc2nc3n(n2)C(c2ccccc2)C=C(C)N3)cc1 (centres undefined) | metabolite_notdetected | 47 µM | > 250 µM | > 230 µM | 40 µM | 41% | 47 µM | 27 µM | 37 µM | 51 µM | 32 µM | 27 µM | 13 µg/mL (≈ 33.4 µM) | 2.93 ×10⁻⁶ cm/s |
| CC1=CC(c2ccccc2)n2nc(NC(=O)c3ccc(OC(C)C)cc3)nc2N1 (centres undefined) | metabolite_notdetected | > 100 µM | > 250 µM | > 250 µM | 75 µM |  |  |  |  |  |  |  |  |  |
| NC(=O)c1c(NC(=O)c2cnn3c(C(F)F)cc(-c4ccccc4)nc23)sc2c1CCC2 |  |  | > 1000 µM |  | 25.4 µM |  |  |  |  |  |  |  |  |  |
| COc1ccc(C(=O)Nc2nc3nc(C)cc(-c4ccccc4)n3n2)cc1 | metabolite_notdetected | 86 µM | 187 µM | > 250 µM | > 200 µM |  |  |  |  |  |  |  |  |  |
| NC(=O)c1ncn([C@@H]2O[C@H](CO)[C@@H](O)[C@H]2O)n1 [RIBAVIRIN] |  |  | > 250 µM | > 250 µM |  |  |  |  |  |  |  |  |  |  |
| CCCOc1ccc(C(=O)Nc2nc3nc(C)cc(-c4ccccc4)n3n2)cc1 | metabolite_notdetected | > 100 µM | 95 µM | > 72 µM | > 200 µM |  |  |  |  |  |  |  |  |  |
| Cc1cc(-c2ccccc2)n2nc(NC(=O)c3ccccc3)nc2n1 | metabolite_notdetected | > 100 µM | > 250 µM | > 250 µM | > 200 µM |  |  |  |  |  |  |  |  |  |
| CCCOc1ccc(C(=O)Nc2nc3nc(-c4ccccc4)cc(C)n3n2)cc1 | metabolite_notdetected | > 100 µM | 52 µM | > 247 µM | 158 µM |  |  |  |  |  |  |  |  |  |
| CCCCOc1ccc(C(=O)Nc2nc3n(n2)C(c2ccccc2)C=C(C)N3)cc1 (centres undefined) | metabolite_notdetected | 100 µM | > 250 µM | > 196 µM | 37 µM |  |  |  |  |  |  |  |  |  |
| CC1=CC(c2ccccc2)n2nc(NC(=O)c3ccccc3F)nc2N1 (centres undefined) | metabolite_notdetected | > 100 µM | > 250 µM | > 250 µM | 185 µM |  |  |  |  |  |  |  |  |  |
| COC(=O)C1=C(N)N(c2cccc(Cl)c2C)C2=C(C(=O)CCC2)C1c1ccc2c(c1)OCO2 (centres undefined) |  | 12.2 µM | > 1000 µM |  | 30.4 µM |  |  |  |  |  |  |  |  |  |
